Reference: patent EP2524912A1, “Amine derivatives” (Bionomics Limited, priority 2011, dated 2012)
pIC50: −log10 of the molar value.

Biological target: human Kv1.3 (Homo sapiens, UniProt P22001)
Assay: Kv1.3 patch-clamp electrophysiology (planar electrode, whole-cell, steady state current)
Type: cell-based
Details: CHO/Kv1.3 stable cell line; steady state current amplitude at end of 500 ms depolarising pulse to +40 mV; values given as ranges; read-out: IC50 (Kv1.3 ephys steady state)
Experimental: The inhibition data shown for the compounds of the list below was calculated using the steady state current amplitude at the end of the depolarising pulse in patch clamp evaluations (as described in the Pharmacology Example 2).
The human Kv1.3 construct (Kv1.3/pENTR, clone IOH61428) was purchased from Invitrogen and subcloned into pcDNA 3.2-DEST (Invitrogen). CHO-K1 cells obtained from ATCC (cat #CCL-61) were transfected with the Kv1.3/pcDNA3.2DEST construct and a stable cell line was developed through two rounds of limiting dilution under G418 selection. Positive (Kv1.3 expressing) clones were identified using electrophysiology.
CHO/Kv1.x stable cell lines were grown in a humidified atmosphere at 37 °C, 5% CO2 in T-75 flasks containing F12 Kaighn's medium supplemented with 10% fetal calf serum, 2 mM L-glutamine, 100 units/ml penicillin, 100 µg/ml streptomycin and 500 µg/ml G418 (to maintain selection). CHO/Kv1.1 and CHO/Kv1.5 cells used for patching were transferred to 33 °C for 48 hours prior to use.
Kv1.x currents were measured using a planar electrode version (Nanion Technologies GMBH) of the patch-clamp technique. Whole-cell Kv1.x current transients were evoked by 500 ms depolarising voltage pulses to +40 mV from a holding potential of -80 mV applied at 10 s intervals for Kv1.1 and Kv1.5 and at 30 s intervals for Kv1.3 to allow adequate time for recovery from inactivation. Cells were continuously bathed in a buffered saline solution containing (mM): 160 NaCl, 4.5 KCI, 2 CaCl2, 1 MgCl2, 5 glucose, 10 HEPES, pH 7.4, 290-310 mOsm.Kg^-1. The internal (pipette) solution contained (mM): 10 NaCl, 70 KF, 75 KCI, 2 MgCl2, 10 HEPES, 10 EGTA, pH 7.2, 290-310 mOsm.Kg^-1. Series resistance compensation (60-80%) was applied when the peak current amplitude exceeded 2 nA.
Compounds were initially dissolved in DMSO to 10 mM. After further dilution in DMSO, compounds were finally diluted in bath solution 1/200 (to give a final DMSO concentration of 0.5%) and applied directly to the recording chamber. Compounds were added at increasing concentrations allowing ample time for steady state block to be achieved between each concentration. Each compound was tested at 5-6 different concentrations on 2-3 cells. IC50 values can be determined by fitting the average normalised reduction of either the current integral or the steady state current amplitude at the end of the depolarising pulse obtained at each compound concentration to the Hill equation. The IC50 data reported herein is based on the steady state calculation.

Sequence of human Kv1.3 (P22001 whole entry): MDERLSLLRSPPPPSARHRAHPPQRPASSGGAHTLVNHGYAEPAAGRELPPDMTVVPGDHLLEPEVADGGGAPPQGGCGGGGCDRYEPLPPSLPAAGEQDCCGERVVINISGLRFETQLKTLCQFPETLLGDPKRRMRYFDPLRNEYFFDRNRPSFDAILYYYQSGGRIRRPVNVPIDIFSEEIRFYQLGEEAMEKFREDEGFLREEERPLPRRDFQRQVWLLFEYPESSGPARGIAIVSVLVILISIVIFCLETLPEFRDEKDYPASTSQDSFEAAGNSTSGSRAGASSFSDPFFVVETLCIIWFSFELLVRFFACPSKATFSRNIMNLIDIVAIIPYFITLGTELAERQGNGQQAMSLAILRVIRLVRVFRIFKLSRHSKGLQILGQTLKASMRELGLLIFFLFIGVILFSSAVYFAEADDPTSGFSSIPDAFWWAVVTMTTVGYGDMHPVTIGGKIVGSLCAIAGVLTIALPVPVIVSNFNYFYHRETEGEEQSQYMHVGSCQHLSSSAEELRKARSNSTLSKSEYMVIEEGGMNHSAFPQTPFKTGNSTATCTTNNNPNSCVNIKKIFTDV

| SMILES | pIC50 |
| --- | --- |
| CC(CC(=O)N(Cc1ccccn1)C(c1ccc(Cl)cc1)C1CC1)S(=O)(=O)c1ccc(F)cc1 (stereo not drawn) [Example 76, N-[(4-chlorophenyl)(cyclopropyl)methyl]-3-[(4-fluorophenyl)sulfonyl]-N-(pyridin-2-ylmethyl)butanamide] | 6.70 to 7.30 |
| CC1(C)Oc2ccc(C(C3CC3)N(Cc3ccccn3)C(=O)COc3ccc(F)cc3)cc2S1(=O)=O (stereo not drawn) [Example 77, N-[cyclopropyl(2,2-dimethyl-3,3-dioxido-1,3-benzoxathiol-5-yl)methyl]-2-(4-fluorophenoxy)-N-(pyridin-2-ylmethyl)acetamide] | 6.70 to 7.30 |
| CC(CC(=O)N(Cc1ccccn1)C(C)c1nncn1C)c1ccc(F)cc1 (stereo not drawn) [Example 78, 3-(4-fluorophenyl)-N-[1-(4-methyl-4H-1,2,4-triazol-3-yl)ethyl]-N-(pyridin-2-ylmethyl)butanamide] | 6.00 to 6.70 |
